The values below are quoted from earlier work in patent publication US20220241222A1, “ATOMOXETINE HYDROCHLORIDE EXTENDED RELEASE COMPOSITIONS AND METHODS OF USE” (CELISTA PHARMACEUTICALS LLC, priority 2019, published 2022).

For data set [1] the following is noted: for mean apparent plasma clearance / mean half-life: oral administration.
Where [2] appears, read: oral, immediate release capsules.
Setting [3] is: CYP2D6 poor metabolizers vs EMs.
[4] abbreviates: primarily as 4-hydroxyatomoxetine-O-glucuronide.

Each structure is given as a SMILES string. Read-outs that look alike come from different tables or passages of the source.

With `Cc1ccccc1O[C@H](CCN)c1ccccc1` [N-desmethylatomoxetine, N-Desmethylatomoxetine], the “plasma concentrations compared with atomoxetine” value in data set [1] (circulating metabolite) was “lower concentrations”.
`CNCC[C@@H](Oc1ccccc1C)c1ccccc1.Cl` [Atomoxetine hydrochloride, (−)-N-Methyl-3-phenyl-3-(o-tolyloxy)-propylamine hydrochloride]: the absolute bioavailability in data set [1] (extensive metabolizers) is on record as 63%. For the same compound, the “absorption after oral administration” value in data set [1] (from immediate release capsules) is listed as “well-absorbed”. For the same compound, in data set [1] (setting [2]), the “effect of food on absorption” value is given as “minimally affected by food” and the estimated half-life entry was “about 5 hours”. Besides, the absolute bioavailability in data set [1] (poor metabolizers) is listed as 94%.
Consider `CNCC[C@@H](Oc1ccccc1C)c1ccccc1` [atomoxetine, (−)-N-Methyl-3-phenyl-3-(o-tolyloxy)-propylamine], for which, where the note is “patients with central autonomic impairment (multiple system atrophy)”, the pressor response result is reported as “large pressor responses”. The “seated and standing systolic blood pressure compared to placebo” value (pediatric dose of 18 mg) was “significantly increases”. Further, in data set [1] (setting [3]), the “AUC of atomoxetine, PMs greater than EMs” value is given as “approximately 10 fold” and the “Css, max, PMs greater than EMs” value is listed as “about 5 fold”. In data set [1] (PMs), the “mean apparent plasma clearance” value is 0.5 mL/min/kg and the mean half-life is 21.6 h. Moreover, in data set [1] (adult EMs), the “mean apparent plasma clearance” value is 5.83 mL/min/kg and the mean half-life is 5.2 h. Moreover, in data set [1] (setting [4]), the “excretion in the feces” value is given as “less than 17 % of the dose” and the “excretion in the urine” value is “greater than 80 % of the dose”.
